Tests used:
lupus = experiment: SLE (lupus) model: kidney and spleen weight; type: in vivo, MRL/MpJ-Faslpr mice; conditions: Week 19
Protocol: Female MRL/MpJ-Faslpr mice (The Jackson Laboratory) were used to assess the efficacy of Compound A in treating lupus. Starting when animals were 10 weeks of age, protein concentration in urine was measured using urine dipsticks.
At the start of the study, each group in the study had two animals that were 9 weeks old, and all others were 10 weeks old. Dosing of all animals with the test compounds began when the older animals were 11 weeks old. […] […] Dosing was at a consistent time each dosing day throughout the study.
Compound A may be formulated as illustrated in Experimental Method A (see Table 2E.). […] A stock solution of Compound A in DMSO (stock solution concentration of Compound A of 40 mg/mL) was prepared and aliquots for weekly preparations were frozen at −20° C. On each preparation day, a stock solution aliquot was thawed and diluted with other vehicle components to the desired concentration. Formulated Compound A and vehicle were at room temperature for dosing.
The study began when the older animals were 11 weeks old, and concluded when the older animals were 19 weeks old. Body weight was recorded once a week, with the exception of two weight measurements taken the first week of the study (when the older animals were 11 weeks old). Proteinuria was measured in the urine of animals with urine dipsticks once a week, starting when the older animals were 10 weeks old. […] Blood samples were taken retro-orbitally at the start of the study to establish a baseline (15 animals, 3 per group), and when the older animals were 16 weeks (all animals) and when animals were 19 weeks (all animals) at the conclusion of the study. Blood urea nitrogen (BUN) was measured in all animals at study termination in blood samples. After blood collection, animals were euthanized, perfused with PBS, and the left kidneys were collected and weighed and fixed in 10% buffered formalin. Left kidneys were then processed to a formalin-fixed, paraffin-embedded (FFPE) block, and histology was analyzed in Periodic Acid-Schiff-stained sections (1 section per slide), using the criteria described in Alperovich et al., Lupus, 16:18-24 (2007). Right kidneys were weighed and snap-frozen at −80° C. Spleens were also collected and weighed. SLE in animals treated with a BET inhibitor and vehicle.

[1] = CIA study: clinical observations; type: in vivo, Lewis rats; conditions: CIA rats

With `Cn1cc(-c2ccccc2)c(-c2cn(C)c(=O)c3[nH]c(-c4cnn(C(F)(F)F)c4)cc23)cc1=O` [Compound A, 6-methyl-4-(1-methyl-2-oxo-5-phenyl-1,2-dihydropyridin-4-yl)-2-(1-(trifluoromethyl)-1H-pyrazol-4-yl)-1,6-dihydro-7H-pyrrolo[2,3-c]pyridin-7-one] the “Mean Kidney Weight” value (lupus; Compound A 1 mg/kg PO QD) was 245 mg, the “Mean Spleen Weight” value (lupus; Compound A 1 mg/kg PO QD) was 241 mg and the “Mean Kidney Weight” value (lupus; Compound A 3 mg/kg PO QD) was 245 mg. The “Mean Spleen Weight” value (lupus; Compound A 3 mg/kg PO QD) was 361 mg, the “Mean Kidney Weight” value (lupus; Compound A 10 mg/kg PO QD) was 225 mg and the “Mean Spleen Weight” value (lupus; Compound A 10 mg/kg PO QD) was 170 mg. The “Kidney weights relative to controls” value (lupus; Compound A (10 mg/kg) and cyclophosphamide groups) was “slightly decreased kidney weights”, the “Spleen weights relative to vehicle controls” value (lupus; Compound A (all tested doses) and cyclophosphamide) was “decreased spleen weights” and the Clinical observations ([1]; 1 mg/kg, Day 16) was “Diarrhea”. The Clinical observations ([1]; 3 mg/kg, Day 13) was “Diarrhea”, the Clinical observations ([1]; 3 mg/kg, Day 14) was “Diarrhea” and the Clinical observations ([1]; 3 mg/kg, Day 15) was “Diarrhea”. For the same molecule, the Clinical observations ([1]; 3 mg/kg, Day 16) was “Diarrhea”, the Clinical observations ([1]; 3 mg/kg, Day 21) was “Diar-” and the Clinical observations ([1]; 10 mg/kg, Day 12) was “Diarrhea”. For the same molecule, the Clinical observations ([1]; 10 mg/kg, Day 13) was “Diarrhea”, the Clinical observations ([1]; 10 mg/kg, Day 14) was “Diarrhea” and the Clinical observations ([1]; 10 mg/kg, Day 15) was “Diarrhea”. The Clinical observations ([1]; 10 mg/kg, Day 16) was “Diarrhea”, the Clinical observations ([1]; 10 mg/kg, Day 17) was “Diarrhea” and the Clinical observations ([1]; 10 mg/kg, Day 18) was “Diarrhea”.

Source: patent publication US20260217701A1, “SELECTIVE BET INHIBITORS AND USES THEREOF” (Tay Therapeutics Limited, priority 2022, published 2026)
